Legend:
MTs [1] = settings: in words; cited from earlier work
total α-tubulin = assay: cell-based MT assay: total α-tubulin by ELISA in cell lysates; settings: for Total α-Tubulin: 4 h incubation, ELISA, relative level, average and SD of triplicate; for effect on total tubulin: in words, see FIG. 1 (compound 22, HEK-293 cells, 4 h)
Method: (§1) The compounds where then evaluated in a cell-based MT assay as described in Kovalevich, Characterization of brain-penetrant pyrimidine-containing molecules with differential microtubule-stabilizing activities developed as potential therapeutic agents for Alzheimer's disease and related tauopathies. J. Pharmacol. Exp. Ther., 2016, 357, 432-50. In summary, acetylated α-tubulin and total α-tubulin levels were determined by ELISA in cell lysates after 4 h of incubation with test compound at either 1 or 10 μM. See, Table 1.

acetylated α-tubulin = assay: cell-based MT assay: acetylated α-tubulin by ELISA in cell lysates; settings: for Acetylated α-Tubulin: 4 h incubation, ELISA, relative level, average and SD of triplicate; for relative activity in the cell-based MT assay / shape of dose-response: in words; for relative activity in the cell-based MT assay: comparison among tested compounds; for shape of dose-response: see FIG. 1 (compound 22, HEK-293 cells, 4 h)
Method: as §1

MTs [2] = settings: in words; versus vincristine, taxol, colchicine; cited from earlier work

Structure (SMILES) | Total α-Tubulin (total α-tubulin; 10 μM test compound) | relative activity in the cell-based MT assay (acetylated α-tubulin) | shape of dose-response (acetylated α-tubulin) | effect on total tubulin (total α-tubulin) | also measured
CO[C@H]1C[C@H]2CC[C@@H](C1)N2c1c(-c2c(F)cc(F)cc2F)c(Cl)nc2ncnn12 [Compound 2, reference compound] | – | – | – | – | binding to MTs versus unpolymerized tubulin heterodimers (MTs [1]): binds exclusively to MTs and not to unpolymerized tubulin heterodimers; Total α-Tubulin (total α-tubulin; 1 μM test compound): 1.12 ± 0.08
C[C@H](Nc1c(-c2c(F)cc(OCCCNC(=O)c3ccc(C4(C(F)(F)F)N=N4)cc3)cc2F)c(Cl)nc2ncnn12)C(F)(F)F [Compound 11, (S)—N-(3-(4-(5-chloro-7-((1,1,1-trifluoropropan-2-yl)amino)-[1,2,4]triazolo[1,5-a]pyrimidin-6-yl)-3,5-difluorophenoxy)propyl)-4-(3-(trifluoromethyl)-3H-diazirin-3-yl)benzamide] | 0.88 ± 0.05 | – | – | – | Acetylated α-Tubulin (acetylated α-tubulin; 1 μM test compound): 1.30 ± 0.28
CNCCCOc1cc(F)c(-c2c(Cl)nc3ncnn3c2N[C@@H](C)C(F)(F)F)c(F)c1 [Cevipabulin (1), Cevipabulin] | – | – | – | – | competition for binding to MTs (MTs [2]): competes with vincristine but not taxol or colchicine
C[C@H](Nc1c(-c2c(F)cc(F)cc2F)c(Cl)nc2ncnn12)C1(C)N=N1 [Compound 14, (S)-5-chloro-N-(1-(3-methyl-3H-diazirin-3-yl)ethyl)-6-(2,4,6-trifluorophenyl)-[1,2,4]triazolo[1,5-a]pyrimidin-7-amine] | 0.94 ± 0.02 | – | – | – | –
C[C@@H](Nc1c(-c2c(F)cc(OCCCN(C)C)cc2F)c(Cl)nc2ncnn12)C1(C)N=N1 [Compound 21, (R)-5-chloro-6-(4-(3-(dimethylamino)propoxy)-2,6-difluorophenyl)-N-(1-(3-methyl-3H-diazirin-3-yl)ethyl)-[1,2,4]triazolo[1,5-a]pyrimidin-7-amine] | – | most active | bell-shaped dose-response | profound loss of total tubulin in a dose-dependent manner | Acetylated α-Tubulin (acetylated α-tubulin; 10 μM test compound): 0.93 ± 0.03
CN(C)CCCOc1cc(F)c(-c2c(Cl)nc3ncnn3c2NCC2(C)N=N2)c(F)c1 [Compound 22, 5-chloro-6-(4-(3-(dimethylamino)propoxy)-2,6-difluorophenyl)-N-((3-methyl-3H-diazirin-3-yl)methyl)-[1,2,4]triazolo[1,5-a]pyrimidin-7-amine] | – | most active | bell-shaped dose-response | profound loss of total tubulin in a dose-dependent manner | –

— patent US11623927B2, “Substituted [1,2,4]triazolo[1,5-a]pyrimidines for stabilizing microtubules” (THE TRUSTEES OF THE UNIVERSITY OF PENNSYLVANIA, priority 2018, dated 2023)
